Results taken from US11231416B2, “Virus-like particle (VLP) based small molecule-protein interaction trap” (VIB VZW, priority 2015, dated 2022).

Molecular target: T1, HSD17B4 (Homo sapiens, UniProt P51659)
T1 construct: endogenous in cells; host or cells: HEK293T
T1 sequence (P51659 1-736): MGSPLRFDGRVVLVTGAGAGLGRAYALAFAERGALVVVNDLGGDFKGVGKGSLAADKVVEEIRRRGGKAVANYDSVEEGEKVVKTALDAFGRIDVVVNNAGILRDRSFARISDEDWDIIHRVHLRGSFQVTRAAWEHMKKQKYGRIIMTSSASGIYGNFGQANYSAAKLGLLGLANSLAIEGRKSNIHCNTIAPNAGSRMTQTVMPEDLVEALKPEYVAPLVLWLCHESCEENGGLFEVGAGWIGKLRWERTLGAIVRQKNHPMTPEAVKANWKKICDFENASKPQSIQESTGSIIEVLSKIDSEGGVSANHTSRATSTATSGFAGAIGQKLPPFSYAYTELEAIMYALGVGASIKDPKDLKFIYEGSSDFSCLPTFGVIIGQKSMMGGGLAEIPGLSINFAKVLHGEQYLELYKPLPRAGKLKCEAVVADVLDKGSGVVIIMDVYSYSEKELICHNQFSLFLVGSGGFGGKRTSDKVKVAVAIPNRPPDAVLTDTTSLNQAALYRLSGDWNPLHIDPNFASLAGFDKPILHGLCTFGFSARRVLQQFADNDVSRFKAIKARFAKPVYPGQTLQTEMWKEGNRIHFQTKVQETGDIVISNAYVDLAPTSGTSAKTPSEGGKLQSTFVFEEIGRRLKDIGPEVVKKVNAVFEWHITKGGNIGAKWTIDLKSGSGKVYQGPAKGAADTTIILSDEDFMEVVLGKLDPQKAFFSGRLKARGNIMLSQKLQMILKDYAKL
Test: Binary MASPIT assay
Type: cell-based
Conditions: HEK293T cells, 100 ng/ml leptin, 24 hours; FIG. 4
Protocol: The binding of HSD17B4 to tamoxifen was further confirmed using the MASPIT technology. The binary MASPIT assay was essentially performed as described before (Risseeuw et al., 2013). Briefly, HEK293T cells were seeded in black tissue-culture treated 96-well plates at 10.000 cells/well in 100 μl culture medium (DMEM supplemented with 10% fetal calf serum), and grown at 37° C., 8% CO2. Twenty-four hours later cells were transfected with a combination of the pCLG-eDHFR plasmid (Risseeuw et al., 2013), the pMG1-HSD17B4 construct and the pXP2d2-rPAP1-luciferase reporter (Caligiuri et al., 2006). The pMG1-HSD17B4 construct was generated by Gateway transfer of the full size HSD17B4 ORF, obtained as an entry clone in the hORFeome collection, into the Gateway compatible pMG1 prey destination vector as described earlier (Lievens et al., 2009). Twenty-four hours after transfection, cells were either left unstimulated or treated with 100 ng/ml leptin, with or without addition of MTX-PEG6-tamoxifen. Another 24 hours later, luciferase activity was assayed using the Luciferase Assay System kit (Promega).

## CCC(=C(c1ccccc1)c1ccc(OCCN(C)Cc2cn(CCOCCOCCOCCOCCOCCNC(=O)CCC(NC(=O)c3ccc(N(C)Cc4cnc5nc(N)nc(N)c5n4)cc3)C(=O)O)nn2)cc1)c1ccccc1 (stereo not shown) [MTX-PEG6-tamoxifen]
  luciferase activity (MASPIT signal): increased luciferase activity in a dose-dependent manner
